Assay results reported in PubChem BioAssay AID2060499 (Molecular Pharmacology Branch, DTP, NCI, 2025).

Test system: 777334-354-R2-J4-PDC tumor spheroids with HUVEC/MSC, viability
Test: Anticancer human tumor 777334-354-R2-J4-PDC patient-derived pancreatic adenocarcinoma cell line growth inhibition [GQUAD]
Conditions: for IC50: curve of first compound; for viability, T/C: stronger effect = lower value; active means viability on the fitted dose curve at most 10% of control; inactive means the rest
From the text: DNA G-quadruplex Stabilizer Agents in Combinations in Complex Spheroids
A high-throughput screen of multi-cell type tumor spheroids was designed to identify active combinations of DNA G-quadruplex stabilizer agents and targeted small molecules. Complex spheroids include a stromal component modeled by human endothelial cells (HUVEC) and fibroblasts modeled by human mesenchymal stem cells (MSCs). The concentration ranges selected for each drug and investigational agent were based upon clinically achievable concentrations if the clinical Cmax of the agent was known.
Compounds. The drugs and investigational agents: pidnarulex (CX-5461; NSC782164), APTO-253 (NSC789042), BRACO-19 (NSC847499), peposertib (NSC802822), ceralasertib (NSC780249), elimusertib (NSC800525), camonsertib (NSC841442), AZD-1390 (NSC803789), olaparib (NSC753686), talazoparib (NSC767125), ART-558 (NSC835418), sotorasib (NSC818433), MRTX-1133 (NSC836407), SN-38 (NSC673596), topotecan (NSC609699), etoposide (NSC141540), doxorubicin (NSC123127), gemcitabine (NSC613327), 5-fluorouracil (NSC19893), paclitaxel (NSC125973), vemurafenib (NSC761431), panobinostat (NSC761190), R-306465 (JNJ-16241199; NSC773264), adavosertib (NSC754352), TP-3654 (NSC805149), carboplatin (NSC241240), KSQ-4279 (NSC840948), and staurosporine (NSC755774) were obtained from the National Cancer Institute (NCI) Developmental Therapeutics Program Chemical Repository (34). The FDA-approved anticancer drug set is available from the NCI Developmental Therapeutics Program. […] The stock solutions were prepared in dimethyl sulfoxide (DMSO, Sigma-Aldrich, St. Louis, MO, cat. D2650) at 800-fold the tested concentration and stored at -70 degrees C prior to their use. All drugs and investigational agents were tested over a range starting from a high concentration at or near the clinical Cmax and decreasing in half-log increments. If the clinical Cmax for an agent had not been determined, the highest concentration tested was 10 microM.
2.3 Cell Culture. All cells were maintained in an incubator at 37 degrees C and 5% CO2 with 95% humidity. The PDC lines were cultured according to standard operating procedures established by the NCI PDMR. All PDCs were thawed and cultured in Matrigel-coated flasks prepared with a working solution of 1X Ham's F-12 nutrient mix, without supplementation (Invitrogen, cat. 11765054), 100 U/mL penicillin-streptomycin (Invitrogen, cat. 15140122), and 2.5% Matrigel (Corning Inc., cat. 354248) for the first three passages. The 857933-349-R-J2-PDC line was cultured in 6C/Colon 1B media, which includes advanced DMEM/F-12 (Thermo Fisher Scientific, cat. 12634028), 10 mM HEPES (Thermo Fisher Scientific, cat. 15630080), 1X GlutaMAX supplement (Thermo Fisher Scientific, cat. 35050061), 0.1 mg/mL primocin (InvivoGen, cat. ant-pm-2), 10% defined fetal bovine serum, heat inactivated (HyClone Laboratories Inc., cat. SH30070.03HI), 50% L-WRN conditioned media (ATCC, cat. CRL-3276), 1.25 mM N-Acetyl-L-cysteine (Sigma-Aldrich, cat. A9165), 10 mM nicotinamide (Sigma-Aldrich, cat. N0636), 1X B-27 supplement (Thermo Fisher Scientific, cat. 17504044), 1X N-2 supplement (Thermo Fisher Scientific, cat. 17502048), 10 microM Y-27632 dihydrochloride (Tocris Bioscience, cat. 1254), and 50 ng/mL human EGF recombinant protein (Thermo Fisher Scientific, cat. PHG0311). The 485176-168-R4-J1-PDC line was cultured in Panc media, which includes all 6C/Colon 1B media components plus 100 ng/mL human FGF-10 (Thermo Fisher Scientific, cat. 100-26), 500 nM SB-431542 (Selleckchem, cat. S1067), and gastrin (Tocris, cat. 3006).
[…]

[1] = second compound 0.0316 µM, first compound 0.0316 µM
[2] = second compound 0.0316 µM, first compound 0.1 µM
[3] = second compound 0.0316 µM, first compound 0.316 µM
[4] = second compound 0.0316 µM, first compound 1 µM
[5] = second compound 0.0316 µM, first compound 3.16 µM
[6] = second compound 0.0316 µM, first compound 10 µM
[7] = second compound 0.1 µM, first compound 0.0316 µM
[8] = second compound 0.1 µM, first compound 0.1 µM
[9] = second compound 0.1 µM, first compound 0.316 µM
[10] = second compound 0.1 µM, first compound 1 µM
[11] = second compound 0.1 µM, first compound 3.16 µM
[12] = second compound 0.1 µM, first compound 10 µM
[13] = second compound 0.316 µM, first compound 0.0316 µM
[14] = second compound 0.316 µM, first compound 0.1 µM
[15] = second compound 0.316 µM, first compound 0.316 µM
[16] = second compound 0.316 µM, first compound 1 µM
[17] = second compound 0.316 µM, first compound 3.16 µM
[18] = second compound 0.316 µM, first compound 10 µM
[19] = second compound 1 µM, first compound 0.0316 µM
[20] = second compound 1 µM, first compound 0.1 µM
[21] = second compound 1 µM, first compound 0.316 µM
[22] = second compound 1 µM, first compound 1 µM
[23] = second compound 1 µM, first compound 3.16 µM
[24] = second compound 1 µM, first compound 10 µM
[25] = second compound 3.16 µM, first compound 0.0316 µM
[26] = second compound 3.16 µM, first compound 0.1 µM
[27] = second compound 3.16 µM, first compound 0.316 µM
[28] = second compound 3.16 µM, first compound 1 µM
[29] = second compound 3.16 µM, first compound 3.16 µM
[30] = second compound 3.16 µM, first compound 10 µM
[31] = second compound 10 µM, first compound 0.0316 µM
[32] = second compound 10 µM, first compound 0.1 µM
[33] = second compound 10 µM, first compound 0.316 µM
[34] = second compound 10 µM, first compound 1 µM
[35] = second compound 10 µM, first compound 3.16 µM
[36] = second compound 10 µM, first compound 10 µM
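Further: spheroids exposed to compounds for 7 days before readout.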

COc1ncnc(C2CC2)c1-c1ncc2cnn(Cc3ccc(-c4nc(C(F)(F)F)cn4C(C)C)cc3)c2n1 + CN(C)c1ccc(Nc2c3ccc(NC(=O)CCN4CCCC4)cc3nc3cc(NC(=O)CCN4CCCC4)ccc23)cc1
inactive: viability, T/C [1] 103% | viability, T/C [2] 94.8% | viability, T/C [3] 108% | viability, T/C [4] 95.7% | viability, T/C [5] 105% | viability, T/C [6] 111% | viability, T/C [7] 104% | viability, T/C [8] 91.1% | viability, T/C [9] 94.4% | viability, T/C [10] 84.5% | viability, T/C [11] 100% | viability, T/C [12] 98.3% | viability, T/C [13] 97.7% | viability, T/C [14] 94.5% | viability, T/C [15] 94% | viability, T/C [16] 95% | viability, T/C [17] 109% | viability, T/C [18] 105% | viability, T/C [19] 96.2% | viability, T/C [20] 101% | viability, T/C [21] 94.5% | viability, T/C [22] 93.8% | viability, T/C [23] 106% | viability, T/C [24] 96.8% | viability, T/C [25] 84.1% | viability, T/C [26] 85.1% | viability, T/C [27] 92.6% | viability, T/C [28] 94.2% | viability, T/C [29] 97.2% | viability, T/C [30] 91.9% | viability, T/C [31] 81.2% | viability, T/C [32] 73.5% | viability, T/C [33] 80.1% | viability, T/C [34] 75.6% | viability, T/C [35] 70.6% | viability, T/C [36] 58.4%
> 10 µM: IC50 (second compound 0.0316 µM) | IC50 (second compound 0.1 µM) | IC50 (second compound 0.316 µM) | IC50 (second compound 1 µM) | IC50 (second compound 3.16 µM) | IC50 (second compound 10 µM)

COc1ncnc(C2CC2)c1-c1ncc2cnn(Cc3ccc(-c4nc(C(F)(F)F)cn4C(C)C)cc3)c2n1 + Cc1[nH]c2ccc(F)cc2c1-c1nc2c3cccnc3c3ncccc3c2[nH]1
0.127 µM: IC50 (second compound 3.16 µM)
< 0.0316 µM: IC50 (second compound 10 µM)
> 10 µM: IC50 (second compound 0.0316 µM) | IC50 (second compound 0.1 µM) | IC50 (second compound 0.316 µM) | IC50 (second compound 1 µM)
inactive: viability, T/C [1] 104% | viability, T/C [2] 96.9% | viability, T/C [3] 103% | viability, T/C [4] 91.4% | viability, T/C [5] 83% | viability, T/C [6] 112% | viability, T/C [7] 102% | viability, T/C [8] 89.4% | viability, T/C [9] 100% | viability, T/C [10] 92.1% | viability, T/C [11] 89% | viability, T/C [12] 105% | viability, T/C [13] 93% | viability, T/C [14] 85% | viability, T/C [15] 96.7% | viability, T/C [16] 85.4% | viability, T/C [17] 93.1% | viability, T/C [18] 110% | viability, T/C [19] 81.9% | viability, T/C [20] 88.3% | viability, T/C [21] 90.5% | viability, T/C [22] 79.6% | viability, T/C [23] 91% | viability, T/C [24] 79.3% | viability, T/C [25] 56.1% | viability, T/C [26] 58.8% | viability, T/C [27] 37.6% | viability, T/C [28] 43.5% | viability, T/C [29] 49.3% | viability, T/C [30] 49.7% | viability, T/C [31] 39.7% | viability, T/C [32] 35.3% | viability, T/C [33] 38.2% | viability, T/C [34] 18.8% | viability, T/C [35] 33.3% | viability, T/C [36] 35.7%

C=CCn1c(=O)c2cnc(Nc3ccc(N4CCN(C)CC4)cc3)nc2n1-c1cccc(C(C)(C)O)n1 + CN(C)c1ccc(Nc2c3ccc(NC(=O)CCN4CCCC4)cc3nc3cc(NC(=O)CCN4CCCC4)ccc23)cc1
0.961 µM: IC50 (second compound 0.316 µM)
0.732 µM: IC50 (second compound 3.16 µM)
0.907 µM: IC50 (second compound 0.1 µM)
0.746 µM: IC50 (second compound 0.0316 µM)
0.793 µM: IC50 (second compound 1 µM)
0.576 µM: IC50 (second compound 10 µM)
inactive: viability, T/C [1] 101% | viability, T/C [2] 94.8% | viability, T/C [3] 81.6% | viability, T/C [4] 38.8% | viability, T/C [5] 36.5% | viability, T/C [6] 37.6% | viability, T/C [7] 103% | viability, T/C [8] 91.1% | viability, T/C [9] 84.6% | viability, T/C [10] 46.1% | viability, T/C [11] 36.8% | viability, T/C [12] 35.9% | viability, T/C [13] 105% | viability, T/C [14] 89.8% | viability, T/C [15] 77.2% | viability, T/C [16] 45.9% | viability, T/C [17] 38.4% | viability, T/C [18] 33.9% | viability, T/C [19] 87% | viability, T/C [20] 82.5% | viability, T/C [21] 78% | viability, T/C [22] 42.8% | viability, T/C [23] 38.9% | viability, T/C [24] 35.2% | viability, T/C [25] 92.9% | viability, T/C [26] 81.4% | viability, T/C [27] 68% | viability, T/C [28] 41% | viability, T/C [29] 39.2% | viability, T/C [30] 33.2% | viability, T/C [31] 90.1% | viability, T/C [32] 81.7% | viability, T/C [33] 59.3% | viability, T/C [34] 39.8% | viability, T/C [35] 34.1% | viability, T/C [36] 25.1%
